Data on one compound can be found in paper PMC11795524, “Melanin-Binding-Based Discovery of Topically Instilled Carbonic Anhydrase Inhibitors for Targeted Delivery and Prolonged Action in the Eye” (Molecular Pharmaceutics, 2025).

The subject of data set [1] is albino rabbits (New Zealand White). In words: IOP study in albino rabbits after single eye drop. In kind it is in vivo, rabbit. As to conditions: single 25 μL eye drop; CAI 0.5 or 1.0%, dorzolamide 2%; n = 5. Here is the method: Five 3–5 months old albino (New Zealand White, all females) and five 3–6 months old pigmented rabbits (Chinchilla Bastard, 1 male and 4 females) were purchased from Charles River Laboratories, UK and Germany, respectively. Prior to the experiments, the rabbits were habituated to handling, and the baseline values of IOP were measured. During the experiments, rabbits weighed 2.4–4.0 kg.
First, stock solutions of CAIs (250 mg/mL) in dimethyl sulfoxide (Sigma-Aldrich, Germany) were prepared. These stock solutions were diluted with PBS (pH 7.4) to obtain 1 mg/mL (0.1%) or 10 mg/mL (1%) solutions. Water-solubility of the compounds was enhanced with 2-hydroxypropyl-β-cyclodextrin (Sigma-Aldrich, Germany) (Table 1).
The CAI solutions were tested in albino rabbits (eye drops of 0.1, and 0.5 or 1.0%) and in pigmented rabbits (0.5 or 1.0%). The novel CAI concentrations in solutions were determined based on the drug solubility with the aim to load the highest possible drug concentration to the single eye drop.
The IOP levels in the rabbits were measured with a tonometer (Tonometer Pro, Icare Finland Ltd.). After baseline IOP measurements, a single eye drop (25 μL) was applied to the left eye, whereas the right eye was not treated. After eye drop instillation, the eyelids were kept open manually for 1 min. The IOP was measured from both eyes of the rabbits at 0.5, 1, 2, 3, 4, 5, 6, 7, and 8 h after eye drop instillation. In the case of the pigmented rabbits, the measurements were continued until 10 h postinstillation, and further until the IOP had returned to the normal baseline.
The CAIs were tested in the same rabbits to minimize interindividual data variation. Washout periods of at least 3 days were used between instillation of different compounds. The experiments started always at 8 a.m. to eliminate bias due to diurnal IOP fluctuation. At each time point, the pressure was measured three times with the same eye, and the average values were calculated and used in data analysis.

The nature of data set [2]: Ocular pharmacokinetics in albino rats (iris-ciliary body, 3H-A01). In kind it is in vivo, rat. From the text: Eight albino rats (RccHan/Wist) and 18 pigmented rats (HsdOla/LH) were obtained from Envigo Laboratories B.V. (The Netherlands) and were used in pharmacokinetic experiments. Additional 13 albino and 13 pigmented rats were used in generation of the analytical standards. Young adult (3–4 months; 340–445 g) rats were used.
To conduct the pharmacokinetic study, bromo-containing CAI A15 (molecular structure presented in Table 1) was conveniently converted into [^3H]-A01 through catalytic dehalogenation in tritium gas. A15 (3.05 mg, 8.2 μmol) was dissolved in dimethylformamide (0.3 mL) and exposed to 99 mbar of tritium gas in a tritium manifold system for 1.5 h in the presence of 10% palladium on carbon (0.57 mg). Following filtration, the reaction mixture underwent double lyophilization with 1 mL ethanol to eliminate labile tritium. […] The crude material was purified via high-performance liquid chromatography, employing a Reprosil-Pur C18-HD column (250 × 10 mm, 5 μm), with a mobile phase comprising 40% acetonitrile in 50 mM ammonium hydrogen carbonate. Purified fractions were subsequently combined, subjected to solid-phase extraction, and eluted with ethanol. Radiochemical analysis indicated a purity exceeding 97%, with a molar activity of 0.29 TBq/mmol (7.9 Ci/mmol) and a total activity of 850 MBq (23 mCi). The solution of 1% A01 (10 mg/mL) was prepared similarly as in the IOP study (see Table 1) except that the solution contained also 72 μg/mL of [^3H]–A01 (specific activity 27.21 mCi/mg). The solution was prepared freshly for each experiment.
Seven μL of A01 solution (10 mg/mL including 72 μg/mL of ^3H–A01) was topically applied to both eyes of albino and pigmented rats. Rats were euthanized with carbon dioxide and cervical dislocation. The eyes (n = 4) of albino rats were collected 0.5, 2, 4, and 7 h after treatment. The eyes of pigmented rats were dissected 0.5, 2, 4, 7, 24, 48, 72, 144, and 240 h after eye drop instillation. The eyes were enucleated and dissected immediately after euthanasia. Iris-ciliary body was dissected, snap frozen on dry ice, and stored at −80 °C until analysis. The analyses were conducted within 24 h from tissue dissection.
Bound and unbound radioactivity of tritiated A01 was determined from dissected iris-ciliary body samples. First, the tissues were mechanically homogenized and diluted with 0.9% sodium chloride (weight ratio 35:1). Then, cellular unbound A01 was released from the iris-ciliary body cells by freezing and thawing the solutions three times with dry ice and a water bath (37 °C). Thereafter, the supernatant and pellet were separated by centrifuging the samples for 10 min at 13,000 rpm. The pellets were dissolved by using 60 min incubation in 100 μL of Solvable (PerkinElmer, Waltham, MA, USA). The samples were then bleached with 10 μL of hydrogen peroxide for 30 min. The pellet volume was calculated as the difference between the total and supernatant volumes.
After subtracting the background radioactivity, the measured net counts per minute (cpm) were converted to disintegrations per minute (dpm) taking into account color quenching and device efficiency. Standard curves were generated for each matrix (albino and pigmented supernatants and pellets; Appendix Figure 1). […] Signal to noise ratios of measured pellet and supernatant samples in liquid scintillation counting are shown in Appendix Table 3.

Where [3] appears, read: iris-ciliary body, single topical eye drop.

Consider `C/C(=N\Nc1ccc(S(N)(=O)=O)cc1)c1cccnc1` [A01], for which the “AUC0-last ± SD in albino rabbits (IOP decrease vs time)” value in data set [1] came out at 19.95 ± 7.16 mmHg x h. Besides, in data set [2] (RccHan/Wist (albino), rat, topical, 7 µL of 10 mg/mL solution per eye, albino iris-ciliary body, 4 h, read-out: free concentration by 4 h), the concentration at 4 h was around 50 ng/g. Also, in data set [2] (albino eyes), the “tmax (bound drug)” value is on record as 2 h and the “tmax(total drug)” value is reported as 2 h. Also, in data set [2] (albino iris-ciliary body), the bound concentrations is given as below 0.05 ng/mg, the bound fraction entry is given as “below 10%” and the “total concentration after decline” value is reported as “≈ 0.05 ng/mg”. Moreover, the “Cmax,unbound” value in data set [2] (albino iris-ciliary body, 2 h postdosing) amounted to 0.50 ng/mg. In data set [2] (albino iris-ciliary body, 2 h postdosing, 7 μL eye drop 10 mg/mL), the “Cmax, total A01 concentration (bound + unbound)” value was 0.54 ng/mg. For the same compound, in data set [2] (setting [3]), the “AUC0-last in albino tissues, bound A01” value is given as 0.09 (ng/mg) × h; the “AUC0-last in albino tissues, total A01” value is on record as 1.37 (ng/mg) × h; the “AUC0-last in albino tissues, unbound A01” value is recorded as 1.29 (ng/mg) × h.
